These results are taken from patent US12391687B2, “Five-and-six-membered heterocyclic compound and use thereof as protein receptor kinase inhibitor” (SHANGHAI ENNOVABIO PHARMACEUTICALS CO., LTD., priority 2018, dated 2025).

The target of one assay is Recombinant human TRKB (Homo sapiens (Human), UniProt Q16620). The experiment in a line: In vitro activity test on TRKB kinase (HTRF kinEASE TK). Conditions: 4.77 μM ATP, 50 min, room temperature. The class given is biochemical. How it is done:
(§1) Recombinant human TRKA, TRKB, TRKC proteins were purchased from Carna Biosciences. HTRF kinEASE TK kit was purchased from Cisbio Bioassays. Synergy Neo 2 of Biotek was used to read the plate.
(§2) The tested compounds were subjected to 3-fold serial dilution to reach a final concentration of 1 μM to 0.05 nM (10 concentrations), duplicates for each concentration; and the DMSO concentration in the detection reaction was 1%.
0.037 ng/μL TRKB protein kinase, 1 μM TK Substrate-biotin polypeptide substrate, 4.77 μM ATP, 1× enzymatic buffer, 5 mM MgCl2, 1 mM MnCl2 and 1 mM DTT. The assay plate was White Proxiplate 384-Plus plate (PerkinElmer), the reaction was incubated at room temperature for 50 min, and the assay volume was 10 μL.
(§3) 10 μL of detection reagent (containing 0.125 μM SA-XL665 and 5 μL 1×TK-Antibody) was added to the plate and incubated overnight at room temperature. Synergy Neo 2 was used to read the plate.
(§4) The 665/620 Ratio was converted according to the following formula into inhibition rate (%)=(1−Ratiotest/Ratiomax)×100%. Ratiomax was the value of positive controls without tested compound, and Ratiotest was the value of each concentration of different compounds. IC50 (nM) data was obtained by 4 parameter curve fitting (see Table 1).

The target in a further assay is Recombinant human TRKA (Homo sapiens (Human), UniProt P04629). The experiment in a line: In vitro activity test on TRKA kinase (HTRF kinEASE TK). Conditions: 14.68 μM ATP, 40 min, room temperature. The assay is classed as biochemical. How it is done:
as §1, §2
0.2 ng/μL TRKA protein kinase, 1 μM TK Substrate-biotin polypeptide substrate, 14.68 μM ATP, 1×enzymatic buffer, 5 mM MgCl2, and 1 mM DTT. The assay plate was White Proxiplate384-Plus plate (PerkinElmer), and the reaction was incubated at room temperature for 40 min, and the assay volume was 10 μL.
as §3, §4

The target in assay [1] is recombinant human TRKA (G595R) (Homo sapiens (Human), UniProt P04629, G595R). The experiment in a line: In vitro activity test on mutant TRKA (G595R) (HTRF kinEASE TK). The class given is biochemical. Conditions: 4.5 μM ATP, 30 min, room temperature; read-out: TRKA (G595R) IC 50. How it is done: The recombinant human TRKA (G595R), TRKA (G667C) and TRKC (G623R) proteins were purchased from SignalChem. HTRF kinEASE TK kit was purchased from Cisbio Bioassays. Synergy Neo 2 of Biotek was used to read the plate.
Sequence of recombinant human TRKA (G595R) (P04629 33-796 G595R): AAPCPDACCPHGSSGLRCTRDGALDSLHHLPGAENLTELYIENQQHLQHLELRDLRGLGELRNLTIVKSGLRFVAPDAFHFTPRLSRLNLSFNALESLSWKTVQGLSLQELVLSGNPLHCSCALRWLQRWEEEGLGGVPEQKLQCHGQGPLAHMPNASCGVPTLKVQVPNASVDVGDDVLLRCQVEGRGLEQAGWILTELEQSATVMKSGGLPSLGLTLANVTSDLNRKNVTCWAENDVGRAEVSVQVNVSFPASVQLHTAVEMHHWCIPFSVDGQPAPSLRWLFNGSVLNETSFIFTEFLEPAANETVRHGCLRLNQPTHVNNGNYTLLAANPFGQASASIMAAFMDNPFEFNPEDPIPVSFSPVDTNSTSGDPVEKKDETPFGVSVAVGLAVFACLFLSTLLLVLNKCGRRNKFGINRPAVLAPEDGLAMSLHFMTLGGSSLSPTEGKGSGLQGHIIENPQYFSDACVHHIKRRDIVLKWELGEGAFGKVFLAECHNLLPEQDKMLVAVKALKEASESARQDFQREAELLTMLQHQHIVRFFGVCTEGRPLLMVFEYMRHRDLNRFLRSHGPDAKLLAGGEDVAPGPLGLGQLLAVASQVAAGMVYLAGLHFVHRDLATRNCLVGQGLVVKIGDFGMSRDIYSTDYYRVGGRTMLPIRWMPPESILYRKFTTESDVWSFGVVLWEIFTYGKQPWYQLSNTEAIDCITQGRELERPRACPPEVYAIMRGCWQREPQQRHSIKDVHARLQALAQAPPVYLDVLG
The tested compounds were subjected to 4-fold serial dilution to reach a final concentration of 1 μM to 0.004 nM (10 concentrates), duplicates for each concentration; and the final concentration of DMSO in the reaction was 1%.
0.12 ng/μL TRKA (G595R) kinase, 1 μM TK Substrate-biotin polypeptide substrate, 4.5 μM ATP, 1× enzymatic buffer, 5 mM MgCl2, and 1 mM DTT. The assay plate was White Proxiplate384-Plus plate (PerkinElmer), and the reaction was incubated at room temperature for 30 min, and the assay volume was 10 μL.
10 μL of detection reagent (containing 0.125 μM SA-XL665 and 5 μL 1×TK-Antibody) was added to the plate and incubated overnight at room temperature, and Synergy Neo 2 was used to read the plate.
The value of 665/620 Ratio minus the value of negative control wells without enzyme, then the obtained value was converted according to the following formula into inhibition rate (%)=(1−Ratiotest/Ratiomax)×100%. Ratiomax was the value of positive controls without tested compound, and Ratiotest was the value of each concentration of different compounds. IC50 (nM) data was obtained by 4 parameter curve fitting (see Table 3).

For a further assay, the target named is Recombinant human TRKC (Homo sapiens (Human), UniProt Q16288). As to the kind of experiment: In vitro activity test on TRKC kinase (HTRF kinEASE TK). The assay is classed as biochemical. Conditions: 25.64 μM ATP, 40 min, room temperature. How it is done:
as §1, §2
0.037 ng/μL TRKC protein kinase, 1 μM TK Substrate-biotin polypeptide substrate, 25.64 μM ATP, 1× enzymatic buffer, 5 mM MgCl2, and 1 mM DTT. The detection plate was White Proxiplate 384-Plus plate (PerkinElmer), the reaction was incubated at room temperature for 40 min, and the assay volume was 10 μL.
as §3, §4

The test system of another assay is KM12-LUC cells. As to the kind of experiment: KM12-LUC cell proliferation experiment (CellTiter-Glo). The class given is cell-based. Conditions: human colon cancer cell line with TPM3-NTRK1 fusion, 72 hours. How it is done: Human colon cancer cell line KM12-LUC (LUC, stably expressing Luciferase) expressing TPM3-NTRK1 fusion gene was used to evaluate cellular activity of the compounds. The TRK fusion gene in KM12-LUC cells makes the sustained activation of TRK and the downstream signaling pathways associated with cell proliferation such as MAPK-ERK, PI3K-AKT, etc independent of the stimulation of extracellular growth factor. […] The method was as follows: On the first day, the cells were seeded into 384-well plates at 2000 cells/well; on the second day, different concentrations of test compounds were added; and on the 5th day, CellTiter-Glo (Promega) was added to detect cell viability, and the cell proliferation inhibition rate at 72 hours was calculated. Statistical analysis was carried out by PRISM5 and the IC50 of the test compounds was calculated.

Bounds are passed on as bounds.

Sequence of Recombinant human TRKC (Q16288 32-839): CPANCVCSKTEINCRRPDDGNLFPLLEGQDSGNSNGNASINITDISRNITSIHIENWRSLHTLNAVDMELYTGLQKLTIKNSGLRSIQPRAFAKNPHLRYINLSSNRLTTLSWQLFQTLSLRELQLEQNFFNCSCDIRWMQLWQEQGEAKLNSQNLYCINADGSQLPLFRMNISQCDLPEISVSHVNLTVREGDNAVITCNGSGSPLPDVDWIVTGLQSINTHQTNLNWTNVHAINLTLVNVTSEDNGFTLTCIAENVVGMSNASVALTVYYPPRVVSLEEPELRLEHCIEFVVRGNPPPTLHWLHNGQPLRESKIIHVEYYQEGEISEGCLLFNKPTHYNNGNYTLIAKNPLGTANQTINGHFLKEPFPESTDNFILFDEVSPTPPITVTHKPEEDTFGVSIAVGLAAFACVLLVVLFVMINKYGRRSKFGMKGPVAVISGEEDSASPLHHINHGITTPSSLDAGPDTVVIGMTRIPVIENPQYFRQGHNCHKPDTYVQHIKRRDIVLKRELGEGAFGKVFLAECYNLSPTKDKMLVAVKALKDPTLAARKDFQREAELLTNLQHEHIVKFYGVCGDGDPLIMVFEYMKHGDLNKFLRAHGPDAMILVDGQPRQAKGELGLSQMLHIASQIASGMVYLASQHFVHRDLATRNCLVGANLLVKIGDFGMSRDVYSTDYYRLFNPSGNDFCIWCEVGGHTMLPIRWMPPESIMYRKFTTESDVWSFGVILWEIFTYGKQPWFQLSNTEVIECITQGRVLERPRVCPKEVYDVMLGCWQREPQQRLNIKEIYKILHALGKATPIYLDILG
Sequence of Recombinant human TRKB (Q16620 32-822): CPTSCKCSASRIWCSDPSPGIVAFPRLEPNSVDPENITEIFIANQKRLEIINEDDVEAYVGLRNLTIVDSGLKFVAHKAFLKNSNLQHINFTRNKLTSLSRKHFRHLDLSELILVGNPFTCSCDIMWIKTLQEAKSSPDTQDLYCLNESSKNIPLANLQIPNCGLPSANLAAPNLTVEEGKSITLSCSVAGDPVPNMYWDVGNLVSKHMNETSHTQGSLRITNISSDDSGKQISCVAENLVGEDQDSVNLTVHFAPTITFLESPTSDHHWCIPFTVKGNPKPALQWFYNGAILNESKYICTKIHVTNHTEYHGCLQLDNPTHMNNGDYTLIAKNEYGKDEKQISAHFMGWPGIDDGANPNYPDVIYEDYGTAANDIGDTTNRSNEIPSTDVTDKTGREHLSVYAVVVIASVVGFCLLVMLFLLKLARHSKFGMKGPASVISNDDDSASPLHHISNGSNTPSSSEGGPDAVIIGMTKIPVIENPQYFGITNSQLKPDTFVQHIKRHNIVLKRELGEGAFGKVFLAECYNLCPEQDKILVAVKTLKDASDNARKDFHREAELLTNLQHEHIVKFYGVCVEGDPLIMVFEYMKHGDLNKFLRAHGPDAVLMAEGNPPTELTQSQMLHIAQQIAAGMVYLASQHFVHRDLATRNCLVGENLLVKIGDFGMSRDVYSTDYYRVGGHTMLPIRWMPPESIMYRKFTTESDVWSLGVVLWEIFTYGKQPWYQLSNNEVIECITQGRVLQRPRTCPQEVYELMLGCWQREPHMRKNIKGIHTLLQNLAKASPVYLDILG
Sequence of Recombinant human TRKA (P04629 33-796): as the sequence (P04629 33-796 G595R) above, with R563G counted along it

As to `Fc1ccc(F)c([C@H]2C[C@H](F)CN2c2n[nH]c3ncc(-c4cn[nH]c4)cc23)c1` [Example 20, 3-((2R,4S)-2-(2,5-difluorophenyl)-4-fluoropyrrolidin-1-yl)-5-(1H-pyrazol-4-yl)-1H-pyrazolo[3,4-b]pyridine], the IC50 on Recombinant human TRKB is < 1 nM; on Recombinant human TRKA, < 1 nM; in assay [1], < 1 nM; on Recombinant human TRKC, < 1 nM; in the assay with KM12-LUC cells it was < 10 nM.

With `Fc1ccc(F)c([C@H]2C[C@H](F)CN2c2n[nH]c3ncc(-c4ccn(CC(F)F)n4)cc23)c1` [Example 36, 5-(1-(2,2-difluoroethyl)-1H-pyrazol-3-yl)-3-((2R,4S)-2-(2,5-difluorophenyl)-4-fluoropyrrolidin-1-yl)-1H-pyrazolo[3,4-b]pyridine], the IC50 on Recombinant human TRKB was < 1 nM; at Recombinant human TRKA, < 1 nM; in assay [1], < 1 nM; at Recombinant human TRKC, < 1 nM; in the assay with KM12-LUC cells, < 10 nM.

Take `Fc1ccc(F)c([C@H]2C[C@H](F)CN2c2n[nH]c3ncc(-c4cnn([C@H]5CCNC5)c4)cc23)c1` [Example 25, 3-((2R,4S)-2-(2,5-difluorophenyl)-4-fluoropyrrolidin-1-yl)-5-(1-((S)-pyrrolidin-3-yl)-1H-pyrazol-4-yl)-1H-pyrazolo[3,4-b]pyridine]: the IC50 on Recombinant human TRKB was < 1 nM; at Recombinant human TRKA it was < 1 nM; in assay [1] it was < 1 nM; on Recombinant human TRKC, < 1 nM; in the assay with KM12-LUC cells, < 10 nM.

`CN(C)CCn1cc(-c2cnc3[nH]nc(N4C[C@@H](F)C[C@@H]4c4cc(F)ccc4F)c3c2)cn1` [Example 33, 2-(4-(3-((2R,4S)-2-(2,5-difluorophenyl)-4-fluoropyrrolidin-1-yl)-1H-pyrazolo[3,4-b]pyridin-5-yl)-1H-pyrazol-1-yl)-N,N-dimethylethan-1-amine]: the IC50 (at Recombinant human TRKB; on Recombinant human TRKA; in assay [1]; on Recombinant human TRKC; in the assay on KM12-LUC cells) was < 1 nM in each case.

In the case of `Fc1ccc(F)c([C@H]2C[C@H](F)CN2c2n[nH]c3ncc(-c4cnn([C@@H]5CCNC5)c4)cc23)c1` [Example 24, 3-((2R,4S)-2-(2,5-difluorophenyl)-4-fluoropyrrolidin-1-yl)-5-(1-((R)-pyrrolidin-3-yl)-1H-pyrazol-4-yl)-1H-pyrazolo[3,4-b]pyridine], the IC50 on Recombinant human TRKB was < 500 nM; at Recombinant human TRKA, < 10 nM; in assay [1], < 1 nM; at Recombinant human TRKC, < 100 nM; in the assay with KM12-LUC cells, < 10 nM.

As to `Fc1ccc(F)c([C@H]2C[C@H](F)CN2c2n[nH]c3ncc(-c4cnn(CC(F)F)c4)cc23)c1` [Example 30, 5-(1-(2,2-difluoroethyl)-1H-pyrazol-4-yl)-3-((2R,4S)-2-(2,5-difluorophenyl)-4-fluoropyrrolidin-1-yl)-1H-pyrazolo[3,4-b]pyridine], the IC50 at Recombinant human TRKB was < 1 nM; on Recombinant human TRKA it was < 1 nM; in assay [1], < 1 nM; at Recombinant human TRKC it was < 1 nM; with KM12-LUC cells, < 10 nM.
